The subject of experiment [1] is mIMCD-3 renal cells. Briefly: NPH-cytokine signature mRNA abundance (qRT-PCR) in confluent mIMCD-3 cells. Format: cell-based, Mouse. Conditions: n=3. How it is done:
Mouse inner medullary collecting duct (mIMCD-3) cells were grown in DMEM/F-12 (1:1, GIBCO, 21331-020) supplemented with 10% FBS, 1% penicillin-streptomycin and 2 mM L-Glutamine (GIBCO, 25030-024). A total of 50,000 cells/cm^2 were seeded for 3 days on 12 well plate. Confluent mIMCD-3 cells were stimulated with 5 μM XMUMP-1 (Selleckchem, S8334), or 10 μM Lats-IN-1 (MedChemExpress, HY-138489) or 0.04% DMSO. For bacteria experiment, mIMCD-3 cells were starved overnight prior stimulation and then stimulated for 6 hours with 5 μM XMU-MP-1 or 0.04% DMSO with or without 1.108/mL UPEC.
(§1) Total RNAs were obtained from cells using RNeasy Mini Kit (Qiagen) and reverse transcribed using High Capacity cDNA Reverse Transcription Kit (Applied Biosystems) according to the manufacturer's protocol. Quantitative PCR were performed with iTaq™ Universal SYBR® Green Supermix (Bio-Rad) on a CFX384 C1000 Touch (Bio-Rad). Hprt, Sdha, Gapdh and Ppia were used as normalization controls. Each biological replicate was measured in technical duplicates.
Data are expressed as means+/−standard deviation. Differences between groups were evaluated using unpaired t test when only 2 groups were evaluated or one-way ANOVA followed, when significant (P<0.05), by the Tukey-Kramer test. The statistical analysis was performed using GraphPad Prism V8 software.

The subject of experiment [2] is MDCK renal cells. In words: Ccl2 and Cxcl10 mRNA response to UPEC in confluent MDCK cells. Format: cell-based, Dog. Conditions: 6 hours, n=5. How it is done:
(§2) Uropathogen E. coli (UTI89 strain, UPEC) bacteria strains were grown as previously described (Zychlinsky Scharff et al., 2019). Inactivation of bacteria was performed on bacteria resuspended at a concentration of 109/ml in PBS and heated at 60° C. for one hour.
Madin-Darby canine kidney cells (MDCK, kind gift from Prof. Kai Simons, MPI-CBG, Dresden, Germany) were cultured using DMEM (GIBCO, 41966-029) supplemented with 10% FBS (GIBCO, 10270-106) and 1% penicillin-streptomycin (GIBCO, 15140-122). A total of 200,000 cells/cm^2 were seeded for 10 days on 12 well plate (Corning, 353043). Confluent MDCK cells were stimulated for 6 hours with 5 μM XMU-MP-1 (Selleckchem, S8334) or 0.04% DMSO. […]
(§3) Total RNAs were obtained from cells using RNeasy Mini Kit (Qiagen) and reverse transcribed using High Capacity cDNA Reverse Transcription Kit (Applied Biosystems) according to the manufacturer's protocol. Quantitative PCR were performed with iTaq™ Universal SYBR® Green Supermix (Bio-Rad) on a CFX384 C1000 Touch (Bio-Rad). […] Each biological replicate was measured in technical duplicates.
(§4) Data are expressed as means+/−standard deviation. Differences between groups were evaluated using unpaired t test when only 2 groups were evaluated or one-way ANOVA followed, when significant (P<0.05), by the Tukey-Kramer test. […]

Experiment [3] has as its system mIMCD-3 renal cells. Briefly: Inflammatory cytokine mRNA response to heat inactivated uropathogenic Escherichia coli (UPEC) in mIMCD-3 cells. Format: cell-based, Mouse. Conditions: confluent mIMCD-3 cells, 5 μM XMU-MP-1 and heat inactivated UPEC, 6 hours, n=7-10. How it is done: as §2
Mouse inner medullary collecting duct (mIMCD-3) cells were grown in DMEM/F-12 (1:1, GIBCO, 21331-020) supplemented with 10% FBS, 1% penicillin-streptomycin and 2 mM L-Glutamine (GIBCO, 25030-024). A total of 50,000 cells/cm^2 were seeded for 3 days on 12 well plate. Confluent mIMCD-3 cells were stimulated with 5 μM XMUMP-1 (Selleckchem, S8334), or 10 μM Lats-IN-1 (MedChemExpress, HY-138489) or 0.04% DMSO. […]
as §3, §4

The subject of experiment [4] is MDCK renal cells. In words: NPH-cytokine signature mRNA abundance (qRT-PCR) in confluent MDCK cells. Format: cell-based, Dog. Conditions: 5 μM XMU-MP-1, 6 hours, n=3-6. The protocol: Madin-Darby canine kidney cells (MDCK, kind gift from Prof. Kai Simons, MPI-CBG, Dresden, Germany) were cultured using DMEM (GIBCO, 41966-029) supplemented with 10% FBS (GIBCO, 10270-106) and 1% penicillin-streptomycin (GIBCO, 15140-122). A total of 200,000 cells/cm^2 were seeded for 10 days on 12 well plate (Corning, 353043). Confluent MDCK cells were stimulated for 6 hours with 5 μM XMU-MP-1 (Selleckchem, S8334) or 0.04% DMSO. For bacteria experiment, MDCK cells were starved overnight prior stimulation and then stimulated for 6 hours with 5 μM XMU-MP-1 or 10 μM Lats-IN-1 (MedChemExpress, HY-138489) with or without 1.108/mL UPEC. All cells were regularly tested for mycoplasma contamination and were mycoplasma-free.
as §1, §4
Background: In qPCR the cycle at which signal appears reflects the starting amount.

For `O=C(N=c1sccn1Cc1ccccc1)c1c[nH]c2ncccc12` [Lats-IN-1, N-(3-benzylthiazol-2(3H)-ylidene)-1H-pyrrolo[2,3-b]pyridine-3-carboxamide], the “NPH-cytokine signature (Ctgf, Cyr61, Ccl2, Ccl5, Cx3cl1, Cxcl1, Cxcl10, Cxcl16, Cxcl17, Il1rn, Il33, Il34, Lgals9 mRNA abundance)” value with mIMCD-3 renal cells [1] (10 μM Lats-IN-1, 6 hours) is “suppresses partially NPH-cytokine signature”. Further, the “inflammatory response to bacteria (Ccl2 and Cxcl10 mRNA abundance)” value with MDCK renal cells [2] (10 μM Lats-IN-1 and UPEC) is “reduces NPH-cytokine signature and inflammatory response to bacteria”.
`CN1C(=O)c2sccc2N(C)c2nc(Nc3ccc(S(N)(=O)=O)cc3)ncc21` [XMU-MP-1, 4-[(6, 10-Dihydro-5, 10-dimethyl-6-oxo-5H-pyrimido[5,4-b]thieno[3,2-e][1,4]diazepin-2-yl)amino]benzenesulfonamide]: in the experiment on mIMCD-3 renal cells [1] (5 μM XMU-MP-1, 6 hours), the “NPH-cytokine signature (Ctgf, Cyr61, Ccl2, Ccl5, Cx3cl1, Cxcl1, Cxcl10, Cxcl16, Cxcl17, Il1rn, Il33, Il34, Lgals9 mRNA abundance)” value was “suppresses NPH-cytokine signature”. For the same compound, the “inflammatory response to uropathogenic bacteria (cytokine mRNA abundance)” value in the experiment with mIMCD-3 renal cells [3] is listed as “blunts inflammatory response to uropathogenic bacteria”. Further, the “NPH-cytokine signature (Ctgf, Cyr61, Ccl2, Ccl5, Cx3cl1, Cxcl10, Cxcl16, Cxcl17, Il1rn, Il34 mRNA abundance)” value in the experiment with MDCK renal cells [4] is “reduces NPH-cytokine signature”. In the experiment with MDCK renal cells [2] (5 μM XMU-MP-1 and UPEC), the “inflammatory response to bacteria (Ccl2 and Cxcl10 mRNA abundance)” value is “reduces NPH-cytokine signature and inflammatory response to bacteria”.

(Values after patent publication US20260021108A1, “USE OF INHIBITORS OF THE HIPPO SIGNALLING PATHWAY FOR THE TREATMENT OF CHRONIC NEPHROPATHIES” (INSTITUT NATIONAL DE LA SANTÉ ET DE LA RECHERCHE MÉDICALE, priority 2022, published 2026).)
